Measured values: patent US10058495B2, “Method of making a skin care product” (The Procter & Gamble Company, priority 2014, dated 2018)
Residues, ends and D or L forms follow the SMILES beside them. *: point of attachment. Palmitoyl = CCCCCCCCCCCCCCCC(=O)*

Experiment: Ex vivo skin penetration study (Franz cell)
Format: in vitro ADME, human
Conditions: arrays 1 (uni-directional, 27 mT) and 2 (bi-directional, overall 21 mT) of Table 1 versus other arrays tested; 400 μg/ml in 50:50 PG:PB at pH 4
Protocol: An ex vivo skin penetration study was conducted to compare the ability of different magnetic arrays to enhance penetration of Pal-KTTKS (SEQ ID NO: 1) into the epidermis of human skin. The dermis and epidermis of human skin samples obtained from donors aged 60-65 years were heat separated and the dermis discarded. 20 μL of a Pal-KTTKS (SEQ ID NO: 1) containing composition (400 μg/ml in 50:50 PG:PB at pH 4) was placed on human epidermis in Franz cell. Different magnetic arrays were positioned approximately 1.0 mm above the epidermis samples and moved over the samples at the speed a user might move a cosmetic applicator when applying a skin care product (e.g., about 20-25 cm/sec). Samples were taken and measured at 0, 1, 2, 4, 6, 8, 24 hours. […] For the bi-directional arrays herein, the “1st layer” refers to the layer closest to the skin-contacting surface of the applicator, and the “2nd layer” refers to the layer disposed on the side of the 1st layer opposite the side closest to the skin-contacting surface.

## CCCCCCCCCCCCCCCC(=O)N[C@@H](CCCCN)C(=O)N[C@H](C(=O)N[C@H](C(=O)N[C@@H](CCCCN)C(=O)N[C@@H](CO)C(=O)O)[C@@H](C)O)[C@@H](C)O [Pal-KTTKS, palmitoyl-lysine-threonine-threonine-lysine-serine] (Palmitoyl-KTTKS-OH; C-terminus assumed)
  penetration enhancement of Pal-KTTKS into epidermis: best penetration enhancement
